Experimental data: the supplement of paper PMC10307832

Tests used:
Test in all cases: relative viability (nuclei count vs DMSO), 5 days (fraction); higher = more cells survive
[1] = compound: C1CNCCC1C2=CC(=NN2)C3=CC=NC=C3 + CC(=O)c1c(C)c2cnc(Nc3ccc(N4CCNCC4)cn3)nc2n(C2CCCC2)c1=O [Palbociclib] (partner 0.5 µM)
Procedure, shortened: (§1)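 Relative viability was taken as the ratio of nuclei in treated wells to nuclei in vehicle wells. Lung cancer cell lines in 1536-well plates received compounds by pin tool one day after seeding, either one drug alone or a fixed anchor-drug dose plus five library-drug doses (not always all listed) in √10 steps. Nuclei were counted on 4× images after 5 days of treatment, and values are medians of duplicate plates.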

[2] = compound: C[C@@H](N)c1ccc(C(=O)Nc2ccnc3[nH]ccc23)cc1 + CC(=O)Nc1cccc(-n2c(=O)n(C3CC3)c(=O)c3c(Nc4ccc(I)cc4F)n(C)c(=O)c(C)c32)c1 [Trametinib] (partner 0.02 µM)
Procedure, shortened: as §1

[3] = compound: C[C@@H](N)c1ccc(C(=O)Nc2ccnc3[nH]ccc23)cc1 + Cc1nc(NC(=O)N2CCC[C@H]2C(N)=O)sc1-c1ccnc(C(C)(C)C(F)(F)F)c1 [Alpelisib] (partner 2 µM)
Procedure, shortened: as §1

Tanzisertib + Luminespib = compound: O[C@H]1CC[C@H](Nc2ncc3nc(Nc4c(F)cc(F)cc4F)n([C@H]4CCOC4)c3n2)CC1 [Tanzisertib] + CCNC(=O)c1noc(-c2cc(C(C)C)c(O)cc2O)c1-c1ccc(CN2CCOCC2)cc1 [Luminespib] (partner 0.01 µM)
Procedure, shortened: as §1

Row | Cell Line | relative viability ([1]; first compound 0.08 µM) | relative viability ([1]; first compound 0.8 µM) | relative viability ([1]; first compound 2.53 µM) | relative viability ([1]; first compound 8 µM) | relative viability ([2]; first compound 0.04 µM) | relative viability ([2]; first compound 0.1265 µM) | relative viability ([2]; first compound 0.4 µM) | relative viability ([2]; first compound 1.265 µM) | relative viability ([2]; first compound 4 µM) | relative viability ([3]; first compound 0.04 µM) | relative viability ([3]; first compound 0.1265 µM) | relative viability ([3]; first compound 0.4 µM) | relative viability ([3]; first compound 1.265 µM) | relative viability ([3]; first compound 4 µM) | relative viability (Tanzisertib + Luminespib; first compound 0.08 µM) | relative viability (Tanzisertib + Luminespib; first compound 0.8 µM) | relative viability (Tanzisertib + Luminespib; first compound 2.53 µM) | relative viability (Tanzisertib + Luminespib; first compound 8 µM) | relative viability (Tanzisertib + Luminespib; first compound 0.253 µM)
1 | NCI-H2347 | 0.385 | 0.453 | 0.44 | 0.431 | 0.283 | 0.337 | 0.366 | 0.304 | 0.175 | 1.02 | 0.976 | 1.2 | 1.05 | 0.845 | 0.494 | 0.581 | 0.571 | 0.511 | –
2 | HCC-44 | 0.994 | 0.997 | 1 | 0.97 | 1.08 | 1.11 | 1.18 | 1.16 | 0.952 | 0.886 | 0.736 | 0.91 | 0.847 | 0.588 | 1.14 | 1.09 | 1.07 | 1.13 | 1.12
3 | HCC-78 | 0.503 | 0.429 | 0.472 | 0.479 | 0.979 | 0.793 | 0.981 | 1.2 | 0.661 | 0.505 | 0.354 | 0.483 | 0.577 | 0.33 | – | – | – | – | –
4 | COR-L23 | 0.307 | 0.278 | 0.29 | 0.291 | 0.414 | 0.591 | 0.604 | 0.262 | 0.389 | 0.699 | 0.788 | 0.921 | 0.801 | 0.381 | 0.588 | 0.669 | 0.706 | 0.639 | 0.579
5 | NCI-H1993 | 0.704 | 0.737 | 0.698 | 0.738 | 0.607 | 0.519 | – | 0.569 | 0.511 | 0.693 | 0.694 | – | 0.718 | 0.685 | 0.879 | 0.915 | 0.714 | 1 | 0.783
6 | NCI-H2405 | 0.502 | 0.519 | 0.586 | 0.507 | – | 0.64 | 0.418 | 0.377 | 0.299 | – | 0.783 | 0.536 | 0.413 | 0.217 | 0.716 | 0.577 | 0.676 | 0.609 | 0.713
7 | NCI-H2126 | 0.364 | 0.368 | 0.322 | 0.354 | 0.515 | 0.561 | 0.534 | 0.637 | 0.676 | 0.828 | 0.795 | 0.79 | 0.82 | 0.881 | 0.919 | 0.887 | 0.961 | 0.993 | 0.897
8 | NCI-H1944 | 0.267 | 0.326 | 0.353 | 0.359 | 0.479 | 0.412 | 0.467 | 0.503 | 0.402 | 0.981 | 0.796 | 0.928 | – | 0.657 | 0.858 | 0.749 | 0.658 | 0.73 | 0.84
9 | NCI-H2342 | 0.486 | 0.545 | 0.587 | 0.556 | 0.91 | 0.821 | 0.837 | 0.746 | 0.737 | – | – | – | – | – | 0.688 | 0.975 | 0.759 | 0.888 | 0.828
10 | NCI-H358 | 0.14 | 0.126 | 0.143 | 0.136 | 0.157 | 0.133 | 0.138 | 0.121 | 0.139 | 0.846 | 0.739 | 0.821 | 0.767 | 0.73 | 0.302 | 0.5 | 0.29 | 0.318 | 0.282
11 | NCI-H1734 | 0.303 | 0.34 | 0.309 | 0.345 | 0.735 | 0.698 | 0.708 | 0.668 | 0.582 | 0.747 | 0.638 | 0.622 | – | 0.487 | 0.208 | 0.214 | 0.197 | 0.203 | 0.206
12 | A-427 | 0.486 | 0.559 | 0.529 | 0.49 | 0.88 | 0.876 | 0.953 | 0.73 | 0.662 | 1.12 | 1.13 | 1.08 | – | 1.07 | 0.941 | 0.942 | 0.972 | 1.07 | 0.893
13 | ABC-1 | 0.468 | 0.617 | 0.733 | 0.76 | – | – | – | – | – | 1.22 | 1.04 | 1.37 | 1.58 | 0.809 | 0.777 | 0.518 | 0.735 | 0.944 | 0.428
14 | NCI-H596 | – | – | – | – | 0.922 | 0.826 | 0.906 | 0.752 | 0.759 | 0.556 | 0.496 | 0.508 | 0.498 | 0.409 | 1.1 | 1.22 | 0.96 | 0.892 | 1.16
15 | NCI-H1563 | – | – | – | – | – | – | – | – | – | 0.958 | 0.995 | 0.985 | 0.971 | 0.918 | 0.485 | 0.524 | 0.484 | 0.446 | 0.498
16 | HCC-366 | 0.336 | 0.409 | 0.398 | 0.385 | 0.345 | 0.332 | 0.388 | 0.399 | 0.375 | 0.41 | 0.398 | 0.581 | – | 0.329 | – | – | – | – | –
17 | NCI-H522 | 0.949 | 1.1 | 0.945 | 1.02 | 0.798 | 0.789 | 0.66 | 1.02 | 0.745 | – | – | – | – | – | 1.38 | 0.966 | 1.16 | 1.17 | 1.27
18 | SW 900 | 0.551 | – | 0.584 | 0.561 | 0.888 | 0.861 | 1.04 | 1.14 | 0.993 | – | – | – | – | – | 0.169 | 0.151 | 0.207 | 0.168 | 0.188
19 | EBC-1 | – | – | – | – | – | – | – | – | – | 0.97 | 0.775 | 0.797 | 0.771 | 0.93 | – | – | – | – | –
20 | NCI-H1650 | 0.365 | 0.315 | 0.379 | 0.343 | 0.579 | 0.786 | 0.648 | 0.554 | 0.609 | – | – | – | – | – | 0.233 | 0.206 | 0.2 | 0.196 | 0.215
21 | IA-LM | – | – | – | – | – | – | – | – | – | 0.83 | 0.999 | 1.09 | 1.11 | 1.06 | – | – | – | – | –
22 | NCI-H1703 | – | – | – | – | – | – | – | – | – | 0.332 | 0.382 | 0.345 | – | 0.317 | – | – | – | – | –
